In paper PMC9564337, “Development of a Neurotensin-Derived ^68Ga-Labeled PET Ligand with High In Vivo Stability for Imaging of NTS1 Receptor-Expressing Tumors” (Cancers, 2022):
Where two headings read alike, the source gives them in different places. Marks after values point to notes of the source that are not given here. One block for each compound: values may come before it.

Columns and labels:
[1] = human plasma, 37 °C, cited from earlier work
[2] = molecular target: T1, hNTS1R (Homo sapiens, UniProt P30989); experiment: radioligand competition binding with [3H]UR-MK300 at intact HT-29 cells
T1 construct: intact HT-29 colon carcinoma cells expressing the hNTS1R; host or cells: HT-29 human colon carcinoma cells
Excerpt: Specific binding data (obtained by subtracting unspecific binding from total binding) were normalized (100% = specifically bound radioligand in the absence of competitor) and plotted over log(concentration of competitor) followed by a four-parameter logistic fit (SigmaPlot 12.5, Systat Software, San José, CA, USA) (note: in the case of 40, the lower curve plateau of the sigmoidal fit was constrained to >0). […] The Ki values from individual experiments were transformed to pKi values, followed by the calculation of mean pKi values ± SD.

[3] = molecular target: T1, hNTS1R; settings: HT-29 cells, cited from earlier work
[4] = molecular target: hNTS2R (Homo sapiens, UniProt O95665); experiment: radioligand competition binding with [3H]UR-MK300 at intact HEK293T-hNTS2R cells; settings: [3H]UR-MK300 c = 10 nM
Procedure: Two days prior to the experiment, white 96-well plates with clear bottoms (Costar, catalog no. 3610) were treated with poly-D-lysine hydrobromide (Sigma-Aldrich) for 10 min. The wells were washed with H2O and the plates were dried on air at rt overnight. […] After removal of the glutaraldehyde solution, the wells were washed twelve times with H2O and two times with culture medium (150–300 µL). […] On the day of the experiment, the culture medium was carefully removed using a multi-channel pipette (Transferpette S-12, Brand, Wertheim, Germany) and the cells were washed once with Dulbecco’s phosphate-buffered saline (D-PBS) containing Ca^2+ and Mg^2+ (1.8 mM CaCl2, 2.68 mM KCl, 1.47 mM KH2PO4, 3.98 mM MgSO4, 136.9 mM NaCl and 8.06 mM Na2HPO4) (200 μL, rt) followed by the careful pre-filling of the wells with 180 µL (total binding) or 160 µL (unspecific and competition binding) of D-PBS, supplemented with 1% BSA and 100 μg/mL bacitracin (Serva, Heidelberg, Germany) (in the following referred to as binding buffer). To determine total binding, 20 µL of a solution of the radioligand in binding buffer (10-fold concentrated compared to the final concentration) were added. […] To determine the displacing effect of a compound of interest, 20 µL of a solution of the respective compound in binding buffer (10-fold concentrated) and 20 µL of a 10-fold concentrated solution of the radioligand in binding buffer were added. During the incubation period of 2 h at 23 °C, the plates were gently shaken. […] The plates were sealed with a transparent sealing tape (permanent seal for microplates, PerkinElmer, product no. 1450–461) and turned upside down several times to achieve complete mixing. Prior to the measurement of the radioactivity with a MicroBeta2 plate counter (PerkinElmer), the plates were kept in the dark for at least 1 h. All experiments were performed in triplicate.

[5] = in vitro; assay type: in vitro ADME; settings: human
Procedure: The concentration of the peptides in plasma/PBS (1:2 v/v) was 80 and 4 μM (recovery determination) or 100 μM (stability tests). Data analysis was based on UV detection at 220 nm (8, 9, 11, 12, 14-18, 21-23, 38-49, and 54-57) or fluorescence detection at 275/305 nm (19 and 20). Reference samples, representing 100% recovery, were prepared in duplicate (8, 9, 11, 14-16, and 19-21) or quadruplicate (12, 17, 18, 22, 23, 38-49, and 54-57). Recovery ratios were obtained by dividing the recovery of the peptide by the recovery of IS for each individual sample (n = 3-5). The obtained recoveries and the recovery ratios are summarized in Table S2, Supplementary Materials. […] Instead, the recovery ratios determined for the previously reported, structurally closely related peptide […] [40] were used for calculating the amount of remaining intact peptide in plasma.

[6] = molecular target: T1, hNTS1R; experiment: fura-2 Ca2+-assay on intact HT-29 cells; assay type: cell-based; settings: maximal response comparable to that of 1
Procedure: The fura-2 calcium assay on intact hNTS1R-expressing HT-29 cells was performed as previously described for human erythroleukemia cells using a Perkin-Elmer LS50 B spectrofluorimeter (PerkinElmer, Rodgau, Germany). At a confluency of 80–95%, cells were trypsinized, detached from the culture flask and the assay was performed as described in the protocol.

[7] = ref Schindler et al. [3] of the supplement (= [60])
[8] = read-out: Ki [nM] NTS2R (converted)
[9] = read-out: pKi ± SD NTS2R (converted)

T1 sequence (P30989 whole entry): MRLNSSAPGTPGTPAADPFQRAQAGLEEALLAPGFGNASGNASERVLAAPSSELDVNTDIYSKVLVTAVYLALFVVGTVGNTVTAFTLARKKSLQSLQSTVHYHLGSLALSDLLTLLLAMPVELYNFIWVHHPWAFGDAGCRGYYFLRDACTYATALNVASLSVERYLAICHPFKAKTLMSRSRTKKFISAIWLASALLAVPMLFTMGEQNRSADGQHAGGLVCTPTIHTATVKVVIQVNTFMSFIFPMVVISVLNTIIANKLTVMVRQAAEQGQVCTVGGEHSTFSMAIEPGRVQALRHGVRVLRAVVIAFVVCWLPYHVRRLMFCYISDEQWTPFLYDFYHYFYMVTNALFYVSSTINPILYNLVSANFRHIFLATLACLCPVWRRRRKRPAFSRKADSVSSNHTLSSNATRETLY
Chain of hNTS2R (O95665 whole entry): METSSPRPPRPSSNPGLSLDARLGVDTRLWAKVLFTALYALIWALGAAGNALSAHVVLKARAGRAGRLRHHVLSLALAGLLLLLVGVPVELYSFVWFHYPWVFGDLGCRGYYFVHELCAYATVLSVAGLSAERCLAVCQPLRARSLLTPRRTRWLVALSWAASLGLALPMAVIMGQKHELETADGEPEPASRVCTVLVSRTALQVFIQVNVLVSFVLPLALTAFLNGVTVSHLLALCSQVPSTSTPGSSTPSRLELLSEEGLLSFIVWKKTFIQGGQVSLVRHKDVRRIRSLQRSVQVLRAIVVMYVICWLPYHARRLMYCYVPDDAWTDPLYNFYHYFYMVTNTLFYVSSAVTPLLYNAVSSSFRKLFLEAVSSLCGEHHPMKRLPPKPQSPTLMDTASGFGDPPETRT

- NTS1R Selectivity (Ratio Ki (NTS2R)/Ki (NTS1R)) [2]: 6.8
- Ki [4, 8]: 19 nM
- Ki [4, 9]: 19.1 nM
Compound: CN[C@@H](CCCNC(N)=NC(=O)NCCCCN)C(=O)N[C@@H](CCCNC(=N)N)C(=O)N1CCC[C@H]1C(=O)N[C@@H](Cc1ccc(O)cc1)C(=O)N[C@H](C(=O)N[C@@H](CC(C)C)C(=O)O)C(C)(C)C [Compound 10]
- % Intact Peptide in Plasma after 1 h [1, 7]: > 99%
- % Intact Peptide in Plasma after 6 h [1, 7]: > 99%
- % Intact Peptide in Plasma after 24 h [1, 7]: > 99%
- % Intact Peptide in Plasma after 48 h [1, 7]: > 99%
- pKi NTS1R [3, 7]: 8.55
- Ki ([3]; ref Schindler et al. [3] of the supplement (= [60]), read-out: Ki [nM] NTS1R): 2.8 nM

Compound: CN[C@@H](CCCNC(N)=NC(=O)NCCCCNC(=O)CN1CCN(CC(=O)O)CCN(CC(=O)O)CCN(CC(=O)O)CC1)C(=O)N[C@@H](CCCNC(=N)N)C(=O)N1CCC[C@H]1C(=O)N[C@@H](Cc1ccc(O)cc1)C(=O)N[C@H](C(=O)N[C@@H](CC(C)C)C(=O)O)C(C)(C)C [Compound 21]
- NTS1R Selectivity (Ratio Ki (NTS2R)/Ki (NTS1R)) [2]: 6.0
- pKi ± SD NTS1R ([2]; [3H]UR-MK300 c = 1 nM, HT-29 cells, 23 °C): 8.01 ± 0.08
- Ki ([2]; [3H]UR-MK300 c = 1 nM, HT-29 cells, 23 °C, read-out: Ki [nM] NTS1R (converted)): 9.9 nM
- % Intact Peptide in Plasma after 24 h ([5]; 24 h, 100 µM, pH 7.4): 26 ± 1%
- % Intact Peptide in Plasma after 48 h ([5]; 48 h, 100 µM, pH 7.4): 4.1 ± 0.1%
- remaining at 1 h, 100 µM ([5]; plasma, pH 7.4, % Intact Peptide in Plasma after 1 h): > 99%
- remaining at 6 h, 100 µM ([5]; plasma, pH 7.4, % Intact Peptide in Plasma after 6 h): > 99%
- agonistic activity at the Gq-coupled NTS1R [6]: full agonists
- pKi ± SD NTS2R [4]: 7.25 ± 0.15
- Ki [4, 8]: 59 nM

- NTS1R Selectivity (Ratio Ki (NTS2R)/Ki (NTS1R)) [2]: 11
- Ki [4, 8]: 9.9 nM
- Ki [4, 9]: 9.77 nM
Compound: CN[C@@H](CCCNC(=N)N)C(=O)N[C@@H](CCCNC(=N)N)C(=O)N1CCC[C@H]1C(=O)N[C@@H](Cc1ccc(O)cc1)C(=O)N[C@H](C(=O)N[C@@H](CC(C)C)C(=O)O)C(C)(C)C [Compound 3, reference compound]
- % Intact Peptide in Plasma after 1 h ([1]; ref Schindler et al. [40]): >99 ^d %
- % Intact Peptide in Plasma after 6 h ([1]; ref Schindler et al. [40]): >99 ^d %
- % Intact Peptide in Plasma after 24 h ([1]; ref Schindler et al. [40]): 98 ^d %
- % Intact Peptide in Plasma after 48 h ([1]; ref Schindler et al. [40]): 87 ^d %
- pKi NTS1R ([3]; ref Schindler et al. [40]): 9.07
